Test results published in publication doi:10.1101/2025.02.20.639278v1, “Discovery of inhibitors for bacterial Arr enzymes ADP-ribosylating and inactivating rifamycin antibiotics” (biorxiv, 2025).

Legend:
TNKS2 = target: T1, TNKS2 (Homo sapiens, UniProt Q9H2K2); assay: human ADP-ribosyltransferase activity panel; format: biochemical
T1 sequence (Q9H2K2 1-1166): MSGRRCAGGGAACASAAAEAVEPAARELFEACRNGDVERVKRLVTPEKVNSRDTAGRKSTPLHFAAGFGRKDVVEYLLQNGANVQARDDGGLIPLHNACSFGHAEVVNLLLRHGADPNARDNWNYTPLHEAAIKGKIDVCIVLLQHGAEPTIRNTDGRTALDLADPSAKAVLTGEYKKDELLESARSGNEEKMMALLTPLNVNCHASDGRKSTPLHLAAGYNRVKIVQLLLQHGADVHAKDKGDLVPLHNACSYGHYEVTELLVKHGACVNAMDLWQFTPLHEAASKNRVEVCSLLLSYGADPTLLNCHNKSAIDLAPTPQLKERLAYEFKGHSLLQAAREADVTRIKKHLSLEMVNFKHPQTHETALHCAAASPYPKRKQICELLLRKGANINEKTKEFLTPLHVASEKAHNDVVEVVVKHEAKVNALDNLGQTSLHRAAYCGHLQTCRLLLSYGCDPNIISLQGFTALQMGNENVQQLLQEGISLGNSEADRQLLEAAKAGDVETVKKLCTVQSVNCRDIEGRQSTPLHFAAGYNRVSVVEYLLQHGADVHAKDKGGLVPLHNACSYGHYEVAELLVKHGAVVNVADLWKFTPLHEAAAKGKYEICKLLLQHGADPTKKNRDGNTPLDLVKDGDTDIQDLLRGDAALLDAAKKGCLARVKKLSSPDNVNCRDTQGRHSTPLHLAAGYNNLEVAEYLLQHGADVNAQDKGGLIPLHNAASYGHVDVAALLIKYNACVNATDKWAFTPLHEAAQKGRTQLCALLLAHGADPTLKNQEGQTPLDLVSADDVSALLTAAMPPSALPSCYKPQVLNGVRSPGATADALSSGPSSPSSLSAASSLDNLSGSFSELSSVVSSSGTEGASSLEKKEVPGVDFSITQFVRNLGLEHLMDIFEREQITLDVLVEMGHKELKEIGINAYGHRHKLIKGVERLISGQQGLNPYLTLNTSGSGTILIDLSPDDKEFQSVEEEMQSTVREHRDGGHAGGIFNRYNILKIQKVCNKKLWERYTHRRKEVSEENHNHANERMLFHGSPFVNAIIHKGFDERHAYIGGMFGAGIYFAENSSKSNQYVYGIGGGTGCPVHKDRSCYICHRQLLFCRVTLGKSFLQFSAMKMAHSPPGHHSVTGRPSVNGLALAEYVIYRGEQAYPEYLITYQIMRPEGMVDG

MaArr [1] = target: T2, MaArr (Mycobacteroides abscessus, UniProt B1MH05); assay: fluorescent NAD+ conversion assay; format: biochemical
T2 construct: gene MAB_0591; chromosomal gene; codon-optimized; His6-MBP tag cut off with TEV; E. coli BL21(DE3)

PARP2 = PARP2 (Homo sapiens, UniProt Q9UGN5); assay: human ADP-ribosyltransferase activity panel; format: biochemical
SmArr = tested on: T3, SmArr; assay: fluorescent NAD+ conversion assay; format: biochemical, Stenotrophomonas maltophilia; conditions: 1 µM NAD+, 2 µM rifampicin, 50 mM PIPES pH 7.5, 0.01% Triton X-100, room temperature
T3 construct: gene arr; class 1 integron gene; codon-optimized; His6-MBP tag cut off with TEV; E. coli BL21(DE3)

MsArr = target: T4, MsArr (Mycolicibacterium smegmatis, UniProt A0QRS5, V47I/Y72F); assay: fluorescent NAD+ conversion assay; format: biochemical
T4 construct: gene MSMEG_1221; V47I Y72F variant gene; His6-MBP tag cut off with TEV; E. coli BL21(DE3)

PaArr [2] = target: T5, PaArr (Pseudomonas aeruginosa, UniProt O87490); assay: fluorescent NAD+ conversion assay; format: biochemical
T5 construct: gene arr-2; class 1 integron gene; codon-optimized; His6-MBP tag cut off with TEV; E. coli BL21(DE3); monomer

PaArr [3] = target: T5, PaArr; assay: fluorescent NAD+ conversion assay; format: biochemical; remark: listed apart in the source
MaArr [4] = target: T2, MaArr; assay: fluorescent NAD+ conversion assay; format: biochemical; remark: listed apart in the source
PaArr [5] = target: T5, PaArr; assay: X-ray crystal structure, […] Å; format: binding; conditions: crystal with 1 mM rifampicin; an additional rifampicin molecule at crystal contacts, likely artifact

Row | SMILES | IC50 (SmArr) | IC50 (MsArr) | IC50 (PaArr [2]) | further results
1 | NS(=O)(=O)c1ccc(-c2nc3ccccc3c(=O)[nH]2)cc1 [compound 2] | 10 to 100 µM | 2 µM | 10 to 100 µM | IC50 (TNKS2): showed strong inhibition of TNKS2 and PARP2 as expected (Figure 3E); IC50 (MaArr [1]): 10 to 100 µM; IC50 (PARP2): showed strong inhibition of TNKS2 and PARP2 as expected (Figure 3E)
2 | O=c1c(O)c(-c2cc(O)c(O)c(O)c2)oc2cc(O)cc(O)c12 [compound 7] | 1.7 µM |  | 0.47 µM | 
3 | Oc1ccc(O)c2c1sc1nncn12 [compound 13, 13] | 1.2 µM |  |  | 
4 | Nc1nc2ccc(Cl)cc2c(O)c1-c1ccccc1 [compound 1] |  | 1.3 µM |  | inhibition at 100 µM (PaArr [3]): < 50%; inhibition at 100 µM (MaArr [4]): < 50%
5 | CO[C@H]1/C=C/O[C@@]2(C)Oc3c(C)c(O)c4c(O)c(c(/C=N/N5CCN(C)CC5)c(O)c4c3C2=O)NC(=O)/C(C)=C\C=C\[C@H](C)[C@H](O)[C@@H](C)[C@@H](O)[C@@H](C)[C@H](OC(C)=O)[C@@H]1C [rifampicin] |  |  |  | X-ray crystal structure, 1.4 Å (PaArr [5]): In the crystal structure of PaArr, an additional rifampicin molecule stacks against these two areas
